Measurements from US20240216384A1, “COMPOSITION FOR PREVENTING OR TREATING METABOLIC DISEASES, CONTAINING TRICYCLO DERIVATIVE COMPOUND” (ONCOCROSS CO.,LTD., priority 2021, published 2024).
Counter-ions that a name gives are not always drawn.

Tests used:
HepG2 cell line = experiment: Oleic acid-induced fat accumulation, Oil-Red O staining; type: cell-based; settings: for fat accumulation inhibitory effect: HepG2 treated with oleic acid, Oil-Red O
Description: By treating the HepG2 cell line, a liver cancer cell line, with oleic acid, fat accumulation was induced into cells, and simultaneously, JPI-289 was treated together to identify the effect of JPI-289 on inhibiting fat accumulation using the Oil-Red O staining method. Herein, INT-747, a drug that succeeded in phase 3 clinical trials for NASH indication, was treated as a positive control group.

3T3L1 cell line = experiment: MTT analysis of JPI-289 toxicity in preadipocyte cell line; type: cell-based, mouse; settings: 0.05 to 5 uM for 24, 48, or 72 hours
Description: The 3T3L1 cell line, a preadipocyte cell line, was dispensed in a 96-well plate, and treated with JPI-289 at a concentration of 0.05 to 5 uM for 24, 48, or 72 hours, and MTT analysis was performed.

HIF-1α [1] = experiment: HIF-1α expression in liver of high-fat diet mice, tissue immunochemical analysis; type: in vivo; settings: JPI-289 50 mpk for 6 weeks, compared to PJ34 (10 mpk) or INT-747 (10 mpk)
Description: To identify the HIF-1 inhibitory effect of INT-747 and JPI-289 in Example 4-1 also in vivo, 5-week-old mice were placed on a high-fat diet (HFD) 1 week after introduction. After 6 weeks, JPI-289 (50 mpk), PJ34 (10 mpk), and INT-747 (10 mpk) were administered for a total of 6 weeks, respectively, and the level of HIF-1α expression in the liver was identified by tissue immunochemical analysis.

STAM™ mouse model [2] = experiment: STAM mouse model, long-term (6 weeks) administration; type: in vivo
Description: After administering JPI-289 (10 mg/kg) for a total of 6 weeks from 6 to 12 weeks in the same manner as in Example 6 (FIG. 19), the fibrosis area was checked.
After administering JPI-289 (10 mg/kg) for a total of 6 weeks from 6 to 12 weeks in the same manner as in Example 6, the NAFLD score and ballooning score were checked to identify the degree of inhibition of fatty liver.

[3] = test system: high-fat diet mouse model; experiment: High-fat diet animal model: body weight, liver size and weight; type: in vivo; settings: 6 weeks; for liver size and weight: compared to high-fat diet group
Description: A high-fat diet animal model was created, and after 6 weeks, JPI-289 (JPI) and a positive control group of INT-747 (INT) were administered for a total of 6 weeks (FIG. 12), and body weight, liver size, and weight were checked. As a result, weight loss was identified in the group administered 50 mpk of JPI-289 compared to the high-fat diet group and the INT-747 administration group (FIG. 13). In addition, compared to the high-fat diet group, liver size and weight were decreased in the JPI-289 10 mpk administration group, JPI-289 50 mpk administration group, and INT-747 10 mpk administration group.

vimentin = experiment: Vimentin expression in Hep3B cells upon TCDD; type: cell-based; settings: compared to INT-747-treated group
Description: (§1) A MOA study was conducted to identify the mechanism that has a more significant effect than other PARP inhibitors as in Example 3-1. Specifically, the Hep3B cell line was treated with 300 uM H2O2 for 2 hours to generate a ROS rich situation for NASH, and treated with TCDD (Tetrachlorodibenzo-p-dioxin) at 10 nM for 24 hours to induce overexpression of TIPARP. Then, PARylation was identified, and the influences of JPI-289 (10 uM and 24 hours) and PJ34 (10 uM and 24 hours) were identified, respectively. In addition, DMOG, which induces hypoxia by inhibiting the degradation of HIF-1α, a hypoxia-related gene that appears in the early stages of fibrosis, was treated at 1 mM for 24 hours, and the influences of JPI-289 (10 uM and 24 hours) and PJ34 (10 uM and 24 hours) were also identified. In addition, as a positive control group, it was compared with INT-747, a drug that successfully completed phase 3 clinical trials for NASH indication.

TIPARP = TIPARP expression in Hep3B cells upon TCDD; type: cell-based; settings: for expression of TIPARP: 10 uM, 24 hours, upon TCDD administration (FIG. 7B)
Description: as §1

PARP1 = PARP1 expression in Hep3B cells upon TCDD; type: cell-based; settings: compared to INT-747-treated group
Description: as §1

PARylation = PARylation in Hep3B cells in NASH environment (H2O2, TCDD); type: cell-based; settings: 10 uM, 24 hours, 300 uM H2O2, TCDD 10 nM, compared to PJ-34
Description: as §1

[4] = test system: MCF7, PC3, and HL60 cell lines; experiment: MTT analysis of JPI-289 toxicity in multiple cell lines; type: cell-based
Description: To identify the toxicity of JPI-289 to cells, MTT analysis was performed using three cell lines: MCF7, PC3, and HL60 (indicated as Cell 1 to Cell 3 in FIG. 1, respectively). Specifically, each cell line was treated with a control group, a DMSO control group (vehicle control), and JPI-289 (10-ethoxy-8-(morpholinomethyl)-2,3,4,6-tetrahydrobenzo[h][1,6]naphthyridin-5(1H)-one dihydrochloride dihydrate) at concentrations of 0.5, 1, 5, 10, 20, and 40 uM, and then treated with MTT tetrazolium after 24, 48, and 72 hours. Then, the cell viability was measured by forming formazan crystals, dissolving the same using DMSO (dimethyl sulfoxide), and measuring the absorbance using an ELISA reader.

[5] = test system: mouse preadipocyte cell line 3T3L1; experiment: Adipocyte differentiation / fat accumulation, Oil-Red O staining; type: cell-based; settings: for differentiation into adipocytes: 3T3L1, Oil-Red O
Description: To induce differentiation of mouse preadipocyte cell line 3T3L1 into adipocytes, DMEM medium containing 10% FBS was treated with insulin, dexamethasone, and isobutylmetylxanthin (IBMX). JPI-289 was treated with a differentiation medium from the start day of inducing differentiation into adipocytes to the end of differentiation. At the end of differentiation, cells were fixed and differentiated adipocytes were stained red using Oil-Red O. The degree of staining was recorded in a photograph, Oil Red was dissolved, and the O.D. value was measured using an ELISA reader.
To identify the inhibitory effect of JPI-289 at a concentration of 5 uM or less on adipocyte differentiation, a re-experiment was performed on the 3T3L1 cell line. Specifically, JPI-289s at concentrations of 0.05, 0.1, 0.25, 0.5, 1, and 2.5 uM were treated together with the differentiation culture medium, respectively, to induce differentiation into adipocytes, and the differentiation into adipocytes and fat accumulation were identified by staining using Oil-Red O.
The fat accumulation inhibitory effects of other PARP inhibitors, 5-AIQ (10 uM), PJ34 (10 uM), and olaparib (5 uM), and JPI-289 (0.25 to 2.5 uM) were compared in the mouse preadipocyte cell line 3T3L1 by the method of Example 2 above.

HIF-1α [6] = experiment: HIF-1α expression in Hep3B cells upon DMOG; type: cell-based; settings: 10 uM, 24 hours, DMOG 1 mM
Description: as §1

STAM™ mouse model [7] = experiment: STAM mouse model, short-term (3 weeks) administration; type: in vivo
Description: Streptozotocin was administered on the second day after birth, and a high-fat diet was administered starting 4 weeks after birth, causing non-alcoholic steatohepatitis (NASH) at 7 to 8 weeks of age. To identify the effect of JPI-289 on NASH and early fibrosis in the STAM™ mouse model (FIG. 15) in which fibrosis is induced by steatohepatitis at 9 to 12 weeks, the drug was administered at 10 mg/kg and 50 mg/kg, respectively for a total of 3 weeks, from 6 to 9 weeks, and the fibrosis-induced area was identified (FIG. 16).
JPI-289 was administered as in Example 6-1, and the NAFLD score and ballooning score were identified as values for evaluating fatty liver.

TGF-beta2 = TGF-beta2 inhibition at RNA level in Hep3B cells; type: cell-based; settings: compared to INT-747
Description: as §1
The inhibitory effects of TGF-beta2 (a downstream signal of HIF-1) by JPI-289 and INT-747 in Hep3B cell line were compared at the RNA level under the same conditions as in Example 4-1.

[8] = 10 mg/kg, 6 weeks, compared to control group

## CCOc1cc(CN2CCOCC2)cc2[nH]c(=O)c3c(c12)NCCC3 [JPI-289, 10-ethoxy-8-(morpholinomethyl)-2,3,4,6-tetrahydrobenzo[h][1,6]naphthyridin-5(1H)-one dihydrochloride dihydrate]
HepG2 cell line; HepG2, high concentrations
  concentration dependence of fat accumulation inhibition: more effective at high concentrations
HepG2 cell line
  fat accumulation inhibitory effect: about 21%
3T3L1 cell line
  toxicity (MTT analysis): no significant effect
HIF-1α [1]
  HIF-1α expression in the liver: significantly decreased
STAM™ mouse model [2]; 10 mg/kg, 6 weeks (6 to 12 weeks), compared to Vehicle
  fibrosis area: significantly decreased
STAM™ mouse model [2]; [8]
  NAFLD score: significantly decreased
  ballooning score: decreased
STAM™ mouse model [2]; low dose for 6 weeks
  overall effect versus control group: superior effect compared to the control group
[3]; 10 mpk
  liver size and weight: decreased
[3]; 50 mpk
  liver size and weight: significant decrease
[3]; 50 mpk, compared to high-fat diet group and INT-747 group
  body weight: weight loss
vimentin
  expression of vimentin, a fibrosis marker: decreased
TIPARP
  expression of TIPARP: significantly increased
TIPARP; upon TCDD, compared to INT-747-treated group (FIG. 8)
  TIPARP: increased
PARP1
  expression of PARP1: significantly decreased
PARylation
  PARylation: significantly inhibited
[4]; concentrations of 20 and 40 uM
  toxicity to cells (MTT cell viability): toxic
[4]; up to a concentration of 10 uM, for 72 hours
  toxicity to cells (MTT cell viability): not toxic
[5]; 250 nM (0.25 uM), 3T3L1
  fat accumulation decrease: about 37%
[5]; 5 uM or higher
  differentiation into adipocytes: inhibited depending on the concentration
[5]; 5 uM or higher, Oil-Red O
  fat accumulation in 3T3L1 cells: significantly decreased
[5]; 0.05 to 2.5 uM
  differentiation into adipocytes: inhibited depending on the concentration
[5]; JPI-289 2.5 uM, 3T3L1
  fat accumulation inhibitory effect compared to olaparib 5 uM: similar
[5]; JPI-289 0.25 to 2.5 uM, 3T3L1
  fat accumulation inhibitory effect compared to 5-AIQ (10 uM) and PJ34 (10 uM): significantly superior
[5]; Mus musculus, 3T3-L1, 50 nM (0.05 uM), 3T3L1, read-out: differentiation inhibitory effect
  inhibition at 0.05 µM: ~15%
HIF-1α [6]
  expression of HIF-1α: significantly decreased
STAM™ mouse model [7]; 10 mg/kg and 50 mg/kg, 3 weeks
  NAFLD score: decrease
  ballooning score: decrease
STAM™ mouse model [7]; 10 mg/kg and 50 mg/kg, 3 weeks (6 to 9 weeks of age)
  fibrosis area: significantly decreased
STAM™ mouse model [7]; administered for 3 weeks, all dose groups
  overall effect versus control group: more effective than the control group
TGF-beta2
  TGF-beta2 at the RNA level: significantly inhibited

## CC[C@H]1[C@@H](O)[C@@H]2[C@H](CC[C@]3(C)[C@@H]([C@H](C)CCC(=O)O)CC[C@@H]23)[C@@]2(C)CC[C@@H](O)C[C@@H]12 [INT-747, reference compound]
HepG2 cell line
  fat accumulation inhibitory effect: about 13%

## CN(C)CC(=O)Nc1ccc2[nH]c(=O)c3ccccc3c2c1 [PJ34, reference compound]
TIPARP
  expression of TIPARP: almost no increase
HIF-1α [6]
  expression of HIF-1α: did not decrease
